Results reported in patent US20130143304A9, “LIGF-TYPE SYSTEMS FOR BIOCONVERSION OF LIGNIN-DERIVED COMPOUNDS” (priority 2010, published 2013).

B1: ligE1: N. aromaticivorans beta-etherase, glutathione S-transferase-like polypeptide, recombinantly expressed in E. coli (protein)
chain: MAANNTITFYDLALSTGATISPFVWATKYALKHKGFDLDVVPGGFTGILERTGGKTERLPAIVDDGEFVLDSWGIVEYLDAKYPDRPVLIPHESVAATLKALDNWFWNAAVGPWMFCFCQDYRDLSLPQDHEYVTHSREKMLGRKLEEVQAGREERLPKISAALEPLRAALAQHQWLGGSSPNYADYRIMGGILFTASVCKTPVLANDDPLRDWIERCLDLYGGLGRHPGLFPLFGLEQREGDPDLFNRAAGQGGIYKRNTGPESTRAETQRITEGMKK
B2: LigF2: N. aromaticivorans beta-etherase, glutathione S-transferase-like polypeptide, recombinantly expressed in E. coli (protein)
chain: MALKYYHAEPLANSLKSMVPLKEKGLAYESIYVDLHKFEQHQPWFTAINPEGQVPVLDHDGTIITHTTVINEYLEDAFPDAQPADAPLRPRDPVGAARMRYWNKFIDEHVMNYVSMHGWHRMVGVIARNIASGDFEKLLESIPLPDQRKKWATARSGFSEADLANATAKIEYALDKVEKQLGETKWLAGDTYTLADINFYSHCGAMVERMFPEMEVARRAPRLCEWRDRVAARPAVAEALKSEDRTAPGLRVWSGEVR
B3: ligE: S. paucimobilis ligE beta-etherase, positive control polypeptide (protein)
chain: MARNNTITLYDLQLESGCTISPYVWRTKYALKHKGFDIDIVPGGFTGILERTGGRSERVPVIVDDGEWVLDSWVIAEYLDEKYPDRPMLFEGPTQKNLMKFLDNWLWSTAVGPWFRCYILDYHDLSLPQDRDYVRWSREQWFLGGQRLEDVQAGREDRLPLVPPTLEPFRRILAETKWLGGDQPNFADYSALAVFLWTASVARTPPLTEDDPLRDWLDRGFDLFDGLGRHPGMNPLFGLKLREGDPEPFVRQTGPAGAGGQALNKGPQTTKMPPRVAEKAD

test system: yeast Saccharomyces cerevisiae; experiment: not given; conditions: each compound alone; cited from earlier work

Molecule	antifungal activity against the yeast Saccharomyces cerevisiae
COc1cc(CCC(C)=O)ccc1O [vanillylacetone]	significant antifungal activities
O=C(O)/C=C/c1ccccc1O [o-coumaric acid]	significant antifungal activities
O=C(O)/C=C/c1ccc(O)cc1 [p-coumaric acid]	significant antifungal activities
O=C(O)/C=C/c1cccc(O)c1 [m-coumaric acid]	significant antifungal activities
O=C(O)C=Cc1ccccc1 [cinnamic acid]	significant antifungal activities
COc1cc(C(=O)O)ccc1O [vanillic acid]	significant antifungal activities
COc1ccc(C=O)cc1OC [Veratraldehyde]	significant antifungal activities

test system: Escherichia coli; experiment: not given; conditions: benzaldehyde derivatives; each compound alone; cited from earlier work

Molecule	antibacterial activity against Escherichia coli
COc1cc(O)cc(OC)c1C=O [4-hydroxy-2,6-dimethoxybenzaldehyde]	antibacterial activity
O=Cc1cccc(O)c1O [2,3-dihydroxybenzaldehyde]	antibacterial activity
O=Cc1ccccc1O [2-hydroxybenzaldehyde]	antibacterial activity
COc1ccc(O)c(C=O)c1 [2-hydroxy-5-methoxybenzaldehyde]	antibacterial activity
COc1cccc(C=O)c1O [2-hydroxy-3-methoxybenzaldehyde]	antibacterial activity
O=Cc1cc(O)ccc1O [2,5-dihydroxybenzaldehyde]	antibacterial activity
O=Cc1ccc(O)c(O)c1O [2,3,4-trihydroxybenzaldehyde]	antibacterial activity
O=Cc1ccc(O)cc1O [2,4-dihydroxybenzaldehyde]	antibacterial activity
O=Cc1c(O)cc(O)cc1O [2,4,6-trihydroxybenzaldehyde]	antibacterial activity

same assay, conditions: known; each compound alone; cited from earlier work

Molecule	antimicrobial activity against Escherichia coli
COc1cc(C=O)ccc1O [vanillin]	antimicrobial activity
COc1cc(C=O)cc(OC)c1O [syringaldehyde]	antimicrobial activity
O=Cc1ccc(O)cc1 [4-hydroxybenzaldehyde]	antimicrobial activity
O=Cc1ccc(CO)o1 [5-hydroxymethylfurfural]	antimicrobial activity
O=Cc1ccco1 [furfural]	antimicrobial activity

test system: not listed separately; experiment: in vitro biochemical assay for beta-etherase activity on fluorescent substrate MUAV (clarified E. coli cell extracts, 4MU fluorescence); conditions: MUAV substrate
Experimental: This example describes a method for gene expression in E. coli, as well as beta-etherase biochemical assays. Expression of known and putative beta-etherase genes was performed using 5 ml cultures of the recombinant E. coli strains described herein in Luria Broth medium by induction of gene expression using isopropylthiogalactoside (IPTG) to a final concentration of 0.1 mM. Following induction, and cell harvest, the cells were disrupted using either sonication or the BPER (Invitrogen) cell lysis system.
In vitro reactions were performed in a total volume of 200 ul and contained: 25 mM TrisHCl pH 7.5; 0.5 mM dithiothreitol; 1 mM glutathione; 0.05 mM or 0.1 mM MUAV; 10 ul of clarified cell extract used to initiate the reactions. Following incubation for 2.5 hours at room temperature, a 50 ul sample of the reactions was terminated using 150 uL of 300 mM glycine/NaOH buffer pH 9. The formation of 4 methylumbelliferone (4MU) upon hydrolysis of the aryl ether bond was monitored by the increase in fluorescence at λex=360 nm and λem=450 nm using a Spectramax UV/visible/fluorescent spectrophotometer.
The total protein concentrations of the cell lysates were determined using the BCA reagent system for protein quantification (Pierce). […]

Molecule	fold more efficient than S. paucimobilis ligE beta-etherase
B1	approximately 75 fold

same assay, conditions: MUAV substrate; concentration not given

Molecule	total activity (beta-etherase) [rfu/ug]
B2	1206

same assay, conditions: reactions containing 0.1 mM MUAV substrate; E. coli cell extracts expressing the protein

Molecule	total activity (beta-etherase) [rfu/ug]
B3	7
B1	529
